This is an account of results in publication PMC4759522, “A fragment merging approach towards the development of small molecule inhibitors of Mycobacterium tuberculosis EthR for use as ethionamide boosters” (Organic & Biomolecular Chemistry, 2016).

For experiment [1], the target named is T1, EthR (Mycobacterium tuberculosis, UniProt P9WMC1). In words: Fluorescence-based thermal shift (DSF) against EthR. Type of experiment: binding. The settings on record: fluorescent-based thermal shift against EthR, 100 μM compound.
Experiment [2] addresses T1, EthR. As to the kind of experiment: Isothermal titration calorimetry (ITC) binding to EthR. The settings on record: for K D (ITC): n.d. = no heats of binding detected. An excerpt: Figure S5 Crystal structure of 28 bound to EthR (the two different binding modes for this ligand are super-imposed). Although the conformations of the side chains of residues Phe184 and Trp138 preclude the formation of sub-pockets III and IV in the sense of Figure S3, compound 28 is still capable of binding to the protein by altering the shape of the EthR hydrophobic cavity and moulding it around its own scaffold. (PDB code 5F0H) […]
Differential scanning fluorimetry (DSF)
DSF measurements were carried out using a Bio-Rad CFX Connect machine with a 96-well reaction module. Samples (50 μl each) containing EthR (20 μM), NaCl (150 mM), Tris.HCl (20 mM, pH = 8.5), SYPRO orange (2.5x) and test compound (100 µM) in water were prepared in 96-well plates. The 96-well plates were heated linearly from 25 °C to 95 °C using a temperature increment of 0.5 °C every 30 seconds. Melting curves represent plots of the fluorescence emission intensity at λmax 490/575 nm of each sample against temperature.
Melting temperatures (Tm) were determined as the temperatures at which the minima on the negative first derivatives of the melting curves occurred.
Isothermal titration calorimetry (ITC)
An aqueous solution of the fragment to be tested (1 mM) was prepared containing NaCl (300 mM), Tris.HCl (20 mM, pH = 8.0), d6-DMSO (10% v/v) and glycerol (to match the 10% v/v glycerol content in the EthR stock solution). A separate aqueous solution of EthR (50 μM) […]
(1 picture or pasted object on this page, not shown here) […]
(§1) containing NaCl (300 mM), Tris.HCl (20 mM, pH = 8.0) and DMSO-d6 (10% v/v) was prepared and placed in the sample cell of a MicroCal iTC200 microcalorimeter (GE Healthcare). The fragment solution was then titrated to the EthR solution over 39 injections (first injection of 0.4 μl and subsequent injections of 1.0 μl). Data was fitted to a one site binding model using Origin software.
(§2) Figure S6 ITC trace for 4-(4-(3-Oxo-3-(pyrrolidin-1-yl)propyl)piperidin-1-yl)benzonitrile 15 Surface plasmon resonance (SPR)
(§3) The SPR assay was carried out using a BIAcore T100 instrument as described previously.2 The assay was designed to measure the interaction of EthR with the ethA promoter DNA sequence (106 bp – experimental DNA), immobilised via biotin-streptavidin linkage onto an […]

For experiment [3], the target named is T1, EthR. As to the kind of experiment: SPR functional assay: disruption of the interaction between EthR and its DNA operator. Type of experiment: biochemical. The settings on record: for LE: calculated using IC50 values determined by SPR; for fold improvement by SPR compared to compound 5: compared to merged compound 5. As for the experimental part:
as §1, §2, §3
(1 picture or pasted object on this page, not shown here)
SA Series S Sensor Chip (BIAcore). DNA from pUC19 (113 bp) was used as the control against non-specific binding. The experimental (106 bp) and control (113 bp) DNA fragments were produced as described previously.15,16 Biotinylated control and experimental DNA were immobilized to the chip surface to achieve stable fixation levels of 247 and 252 resonance units (RU) respectively.
For screening, EthR/ fragment solution (1-2 μM EthR and required concentration of fragment made up in running buffer (2 mM MgCl2, 10 mM Tris-Cl pH 7.5, 0.1 mM EDTA, 200 mM NaCl, 2% (v/v) DMSO) was flowed over the chip at 20 μL/min for 180 s. The dissociation time was 180 s. To determine binding levels, the response of the control channel at steady state was subtracted from that of the experiment channel. The chip was regenerated between samples using 0.03% w/v SDS in running buffer (passed at a flow rate of 20 μL/ min for 60 […]
For IC50 calculations, the SPR response of EthR binding to the immobilized DNA was measured at various concentrations of compound. The resulting RUs were used to fit the data using nonlinear regression with variable slope dose-response inhibition constrains on GrapfPad PRISM 5.00. IC50 values were calculated as the compound concentrations necessary to inhibit 50% of the maximal interaction between EthR and its DNA operator […]
Figure S7 IC50 curve (SPR) for N-((1-(4-Cyanophenyl)piperidin-4-yl)methyl)pyrrolidine-1-

Where two headings read alike, the source gives them in different places.

T1 sequence (P9WMC1 whole entry, looked up): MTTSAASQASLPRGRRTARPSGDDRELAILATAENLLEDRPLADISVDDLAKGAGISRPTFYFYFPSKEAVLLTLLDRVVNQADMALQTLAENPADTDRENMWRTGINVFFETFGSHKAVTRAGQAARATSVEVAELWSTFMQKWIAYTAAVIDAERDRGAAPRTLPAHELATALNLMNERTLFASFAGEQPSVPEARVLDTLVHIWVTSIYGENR

With `N#Cc1ccc(N2CCC(CCC(=O)NCc3cccc(N4CCCCC4)c3)CC2)cc1` [Compound 29], the ΔT m result at EthR [1] is “+9.2 °C”. In addition, the “K D (ITC)” value at EthR [2] is on record as “could not be observed by ITC”. This compound also yielded an IC50 at EthR [3] of 52 µM.

In the case of `O=C(CCC1CCCC1)N1CCCC1` [Compound 1], the ΔT m result at EthR [1] is “+3.5 °C”. Moreover, at EthR [2], binding was put at a Kd of 12 µM. Moreover, on EthR [3], the IC50 was 280 µM and the LE is 0.36.

For the compound `CN(Cc1ccc(N2CCC(CCC(=O)N3CCCC3)CC2)cc1)C(=O)OC(C)(C)C` [Compound 14], on EthR [1], the ΔT m result was “+6.3 °C”. At EthR [2], this compound returned a Kd of 3 µM. Besides, on EthR [3], the IC50 is 7 µM and the “fold improvement by SPR compared to compound 5” value is listed as “five-fold”.

In the case of `CNCc1ccc(N2CCC(CCC(=O)N3CCCC3)CC2)cc1` [Compound 5], the ΔT m result at EthR [1] was “+4.3 °C”. For the same compound, on EthR [2], binding was put at a Kd of 5 µM. This compound also had an IC50 against EthR [3] of 35 µM. Also, the “fold improvement in disruption of EthR-DNA interaction (SPR IC50) compared to starting fragment 1” value at EthR [3] (compared to fragment 1) is “eight-fold”.

With `O=C(NCC1CCN(c2ncccn2)CC1)N1CCCC1` [Compound 22], the ΔT m entry on EthR [1] is “+3.7 °C”. On EthR [2], this compound had a Kd of 12 µM. This compound displayed a half-maximal inhibitory concentration (IC50) against EthR [3] of 20 µM.

Regarding `CCOC(=O)c1ccc(N2CCC(CCC(=O)N3CCCC3)CC2)cc1` [Compound 16], the ΔT m entry on EthR [1] was “+9.3 °C”. Moreover, on EthR [2], the “K D (ITC)” value is “binding could not be measured by ITC”. At EthR [3], this compound had an IC50 of 3 µM.

For `CCOC(=O)c1ccc(N2CCC(CNC(=O)C3CCCC3)CC2)cc1` [Compound 20], at EthR [1], the ΔT m result was “+5.5 °C”. Moreover, the IC50 at EthR [3] is greater than 100 µM.

As for `O=C(CCC1CCCC1)Nc1cccc(N2CCCCC2)c1` [Compound 4], at EthR [1], the ΔT m result is “+4.5 °C”. The 50% inhibitory concentration (IC50) at EthR [3] was greater than 100 µM.

Turning to `N#Cc1ccc(N2CCC(CCC(=O)Nc3cccc(N4CCCCC4)c3)CC2)cc1` [Compound 23, 3-(1-(4-cyanophenyl)piperidin-4-yl)-N-(3-(piperidin-1-yl)phenyl)propanamide], the “K D (ITC)” value at EthR [2] is reported as “could not be observed by ITC”. Besides, on EthR [3], the IC50 is greater than 100 µM.

On to `O=C(NCC1CCN(c2ccccn2)CC1)N1CCCC1` [Compound 21], for which the ΔT m entry at EthR [1] was “+3.8 °C”. For the same compound, the Kd at EthR [2] came out at 24 µM. Besides, at EthR [3], the IC50 was 22 µM and the LE is 0.31.

Regarding `CCOC(=O)c1ccc(N2CCC(CNC(=O)N3CCCC3)CC2)cc1` [Compound 18], at EthR [1], the ΔT m result is “+8.8 °C”. Further, at EthR [3], the half-inhibitory concentration (IC50) came to 2 µM.

On to `CNCc1ccc(N2CCCCC2)cc1` [Compound 2], for which, on EthR [1], the ΔT m entry is “+3.8 °C”. The IC50 on EthR [3] (disruption of EthR binding to its DNA operator, SPR, read-out: IC50 (SPR)) is greater than 100 µM.

Turning to `N#Cc1ccc(N2CCC(CNC(=O)C3CCCC3)CC2)cc1` [Compound 19], the ΔT m result on EthR [1] is “+5.9 °C”. Moreover, at EthR [3], the IC50 was 25 µM.

`CNCc1ccc(N2CCCN(C(=O)CCC3CCCC3)C2)cc1` [Compound 3, 3-cyclopentyl-1-(3-(4-((methylamino)methyl)phenyl)tetrahydropyrimidin-1(2H)-yl)propan-1-one] came in with an IC50 at EthR [3] greater than 100 µM.

Turning to `N#Cc1ccc(N2CCC(CNC(=O)N3CCCC3)CC2)cc1` [Compound 17, N-((1-(4-Cyanophenyl)piperidin-4-yl)methyl)pyrrolidine-1-carboxamide], on EthR [1], the ΔT m result was “+7.2 °C”. The IC50 at EthR [3] was determined as 4 µM.

`N#Cc1ccc(N2CCC(CCC(=O)N3CCCC3)CC2)cc1` [Compound 15, 4-(4-(3-Oxo-3-(pyrrolidin-1-yl)propyl)piperidin-1-yl)benzonitrile]: the ΔT m entry at EthR [1] is “+7.5 °C”. On EthR [2], this compound registered a Kd of 1 µM. Moreover, the “fold decrease in K D by ITC compared to compound 5” value at EthR [2] (compared to compound 5) is recorded as “five-fold”. Also, at EthR [3], the IC50 came to 3 µM, the LE is reported as 0.34 and the “fold improvement by SPR compared to compound 5” value is recorded as 10 fold.

Regarding `N#Cc1ccc(N2CCC(CCC(=O)NCc3ccc(N4CCCCC4)cc3)CC2)cc1` [Compound 28], the “K D (ITC)” value at EthR [2] is “could not be observed by ITC”. Moreover, at EthR [3], half-maximal inhibition (IC50) was put at 33 µM.
